From patent publication US11999727B2 (Tango Therapeutics, Inc., priority 2020, dated 2024)

Tests used:
PRMT5 [1] = target: T1, PRMT5 (Homo sapiens, UniProt O14744); assay: PRMT5 biochemical IC50 assay with SAM as cofactor; settings: PRMT5, SAM as cofactor; read-out: SAM IC50
T1 construct: purchased Viva (custom protein)

PRMT5 [2] = target: T1, PRMT5; assay: PRMT5 biochemical IC50 assay with no cofactor; settings: PRMT5, no cofactor
Text: Table 1 indicates IC50 values (μM) against PRMT5 for exemplary compounds in the presence of SAM as cofactor, with no cofactor, and with MTA as cofactor, respectively (columns 4-6). […] Ki values can be calculated from the IC50 values as described in the Examples section. As detailed in the Examples section, for the assay performed in the presence of SAM, IC50=Ki×1.5 (Ki=IC50/1.5).

[3] = tested on: HAP1 MTAP-intact cell line; assay: SDMA in-cell western assay, HAP1 MTAP-intact; type: cell-based; settings: Homo sapiens, HAP1, SDMA in-cell western, HAP1 MTAP-intact; read-out: MTAP HAP1 intact IC50
Method in brief: (§1)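 Compounds were tested in HAP1 cells differing only in MTAP status (endogenous expression versus null). Cellular SDMA levels were then measured by in-cell western, giving an IC50 in each background.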

[4] = tested on: HAP1 MTAP-deleted cell line; assay: SDMA in-cell western assay, HAP1 MTAP-deleted; type: cell-based; settings: for IC50: HAP1 MTAP-deleted
Method in brief: as §1

[5] = tested on: HAP1 MTAP-deleted cell line; assay: Viability assay, MTAP-deleted cell line; type: cell-based; settings: Homo sapiens, read-out: HAP1 MTAP deleted viability
Text: Table 1 additionally indicates IC50 values in a viability assay for the MTAP-deleted cell line (column 10), indicating the effect of treatment with compound on cell survival.

PRMT5 [6] = target: T1, PRMT5; assay: PRMT5 biochemical IC50 assay with MTA as cofactor; settings: PRMT5, MTA as cofactor; read-out: MTA IC50
[7] = read-out: No Cofactor/ rel IC50
[8] = Homo sapiens, HAP1, SDMA in-cell western, read-out: HAP 1 MTAP deleted IC50
[9] = IC50 ratio HAP1 MTAP-intact / HAP1 MTAP-deleted, SDMA in-cell western
[10] = HAP1, viability assay, MTAP-deleted cell line
[11] = Homo sapiens, HAP1, SDMA in-cell western, read-out: HAP1 MTAP deleted IC50
[12] = HAP1, viability, HAP1 MTAP-deleted cell line

T1 sequence (O14744 whole entry): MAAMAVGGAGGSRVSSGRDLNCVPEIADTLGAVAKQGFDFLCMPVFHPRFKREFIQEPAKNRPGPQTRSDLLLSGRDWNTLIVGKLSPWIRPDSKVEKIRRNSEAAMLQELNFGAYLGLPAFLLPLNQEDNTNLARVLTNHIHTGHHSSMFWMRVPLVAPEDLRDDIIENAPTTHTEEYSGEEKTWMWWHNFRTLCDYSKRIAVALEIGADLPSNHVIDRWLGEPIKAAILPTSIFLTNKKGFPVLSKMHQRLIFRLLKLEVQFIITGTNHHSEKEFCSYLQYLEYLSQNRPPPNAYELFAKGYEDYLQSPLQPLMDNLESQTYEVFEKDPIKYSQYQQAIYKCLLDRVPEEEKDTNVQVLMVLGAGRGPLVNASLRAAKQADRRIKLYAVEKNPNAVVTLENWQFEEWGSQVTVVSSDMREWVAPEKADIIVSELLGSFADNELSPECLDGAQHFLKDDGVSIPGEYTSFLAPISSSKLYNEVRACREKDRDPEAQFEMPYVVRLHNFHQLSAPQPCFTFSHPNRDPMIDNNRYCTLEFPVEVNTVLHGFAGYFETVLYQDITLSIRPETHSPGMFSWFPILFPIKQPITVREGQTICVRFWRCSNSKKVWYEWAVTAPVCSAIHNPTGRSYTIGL
T1 sequence (Q9BQA1 whole entry partner): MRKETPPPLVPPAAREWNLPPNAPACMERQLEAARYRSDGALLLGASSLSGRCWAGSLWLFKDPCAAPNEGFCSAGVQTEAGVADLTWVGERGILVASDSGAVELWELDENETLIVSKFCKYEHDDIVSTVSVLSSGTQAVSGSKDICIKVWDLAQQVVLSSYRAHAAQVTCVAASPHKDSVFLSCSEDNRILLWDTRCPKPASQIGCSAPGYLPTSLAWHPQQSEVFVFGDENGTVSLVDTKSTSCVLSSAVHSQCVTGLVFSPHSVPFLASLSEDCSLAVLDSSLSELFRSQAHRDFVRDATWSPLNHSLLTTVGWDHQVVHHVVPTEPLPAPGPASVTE

| SMILES | IC50 (PRMT5 [1]) [nM] | IC50 (PRMT5 [2]; [7]) [nM] | IC50 [3] [nM] | IC50 [4, 8] [nM] | MTAP intact/deleted ratio [4, 9] | IC50 [5, 10] [nM] | IC50 (PRMT5 [2]; read-out: No Cofactor/rel IC50) [nM] | IC50 (PRMT5 [6]) [nM] | IC50 [4, 11] [nM] | IC50 ([4]; SDMA in-cell western, read-out: HAP1 MTAP deleted IC50) [nM] | IC50 ([5]; HAP1, viability IC50, MTAP-deleted cell line) [nM] | IC50 [5, 12] [nM] | MTAP intact/deleted ratio ([4]; IC50 ratio HAP1 MTAP-intact vs HAP1 MTAP-deleted, SDMA in-cell western) |
| --- | --- | --- | --- | --- | --- | --- | --- | --- | --- | --- | --- | --- | --- |
| Cc1cc(NC(=O)C(=O)N2C[C@H](C)CC[C@@H]2C2CCNC(=O)C2)cnc1N (mixture of isomers) [Compound 159, N-(6-amino-5-methyl-3-pyridyl)-2-[(2S,5S)-5-methyl-2-(2-oxo-4-piperidyl)-1-piperidyl]-2-oxo-acetamide] | 50 to 500 | 50 to 500 | > 1000 | > 1000 | B (an IC50 ratio greater than or equal to 3 fold but lower than 10 fold) | > 10000 |  |  |  |  |  |  |  |
| Cc1cc(NC(=O)C(=O)N2C[C@H](C)CC[C@H]2C2CCCN(C)C2)cnc1N (mixture of isomers) [Compound 832, N-(6-amino-5-methyl-3-pyridyl)-2-[(2R,5S)-5-methyl-2-(1-methyl-3-piperidyl)-1-piperidyl]-2-oxo-acetamide] | > 500 |  | > 1000 |  | C (an IC50 ratio of less than 3 fold) |  | > 500 | 50 to 500 | > 1000 |  |  |  |  |
| Cc1cc(NC(=O)C(=O)N2C[C@H](C)CC[C@H]2c2ccc(NC3COC3)cc2)cnc1N (racemic) [Compound 1048] | 50 to 500 |  | 100 to 1000 | < 100 | B (an IC50 ratio greater than or equal to 3 fold but lower than 10 fold) |  | 50 to 500 | 50 to 500 |  |  |  |  |  |
| Cc1cc(NC(=O)C(=O)N2C[C@H](C)CC[C@H]2c2ccc(CC(F)(F)F)cc2)cnc1N (racemic) [Compound 1056] | 50 to 500 |  | 100 to 1000 | 100 to 1000 | C (an IC50 ratio of less than 3 fold) |  | 50 to 500 | < 50 |  |  |  |  |  |
| Cc1cncc(NC(=O)C(=O)N2CCCC[C@H]2c2cccc(C)c2)c1 (single isomer, unassigned) [Compound 4] | > 500 | > 500 | > 1000 | > 1000 | C (an IC50 ratio of less than 3 fold) |  |  | 50 to 500 |  |  |  |  |  |
| Cc1cncc(NC(=O)C(=O)N2C[C@@H](C)CC[C@@H]2c2cccc(F)c2)c1 (single isomer, unassigned) [Compound 77] |  | > 500 | > 1000 | > 1000 | C (an IC50 ratio of less than 3 fold) | > 10000 |  | > 500 |  |  |  |  |  |
| Cc1cc([C@@H]2CC[C@@H](C)CN2C(=O)C(=O)Nc2cncc(C(N)=O)c2)ccc1F (single isomer, unassigned) [Compound 307] | > 500 |  | > 1000 |  | C (an IC50 ratio of less than 3 fold) |  | > 500 | > 500 | > 1000 |  |  |  |  |
| COc1ncc(NC(=O)C(=O)N2C[C@H](C)CC[C@H]2c2cccs2)cc1C(N)=O (single isomer, unassigned) [Compound 310] | > 500 |  | > 1000 |  | C (an IC50 ratio of less than 3 fold) |  | > 500 | > 500 | > 1000 |  |  |  |  |
| CNc1cccc([C@H]2CCCCN2C(=O)C(=O)Nc2cncc(C(N)=O)c2)c1 (single isomer, unassigned) [Compound 316] | > 500 |  | > 1000 |  | C (an IC50 ratio of less than 3 fold) |  | > 500 | 50 to 500 | > 1000 |  |  |  |  |
| COc1ncc(NC(=O)C(=O)N2CCCCC2C2CCCCC2)cc1C(N)=O (single isomer, unassigned) [Compound 317, 5-(2-(2-cyclohexylpiperidin-1-yl)-2-oxoacetamido)-2-methoxynicotinamide] | > 500 |  | > 1000 |  | C (an IC50 ratio of less than 3 fold) |  | > 500 | > 500 |  | > 1000 |  |  |  |
| C[C@@H]1CC[C@@H](c2ccc3c(c2)OCCN3)N(C(=O)C(=O)Nc2cncc(C(N)=O)c2)C1 (single isomer, unassigned) [Compound 605] | > 500 |  | > 1000 | > 1000 | B (an IC50 ratio greater than or equal to 3 fold but lower than 10 fold) |  | > 500 |  |  |  | > 10000 |  |  |
| CCc1cc(NC(=O)C(=O)N2C[C@@H](C)CC[C@@H]2c2cccc([C@H]3CCCN(C)C3)c2)cnc1N (single isomer, unassigned) [Compound 1285] | 50 to 500 | < 50 | 100 to 1000 | < 100 | A (an IC50 ratio greater than or equal to 10 fold) |  |  |  |  |  |  | < 1000 |  |
| CCc1cc(NC(=O)C(=O)N2C[C@@H](C)CC[C@@H]2c2cccc(Oc3cccnc3)c2)cnc1N [Compound 1180] | 50 to 500 |  | 100 to 1000 |  |  | < 1000 |  | < 50 | < 100 |  |  |  | A (an IC50 ratio greater than or equal to 10 fold) |
| COc1ncc(NC(=O)C(=O)N2C[C@@H](C)CC[C@@H]2c2cccc(N3CCN(C)CC3)c2)cc1C(N)=O [Compound 1277, 2-methoxy-5-(2-((2R,5S)-5-methyl-2-(3-(4-methylpiperazin-1-yl)phenyl)piperidin-1-yl)-2-oxoacetamido)nicotinamide] | 50 to 500 |  | 100 to 1000 | < 100 | A (an IC50 ratio greater than or equal to 10 fold) |  |  | < 50 |  |  |  | < 1000 |  |
| CCc1cc(NC(=O)C(=O)N2C[C@@H](C)CC[C@@H]2c2cccc(Oc3cc(C)nc(C)c3)c2)cnc1N [Compound 1297, N-(6-amino-5-ethylpyridin-3-yl)-2-((2R,5S)-2-(3-((2,6-dimethylpyridin-4-yl)oxy)phenyl)-5-methylpiperidin-1-yl)-2-oxoacetamide] | 50 to 500 |  | 100 to 1000 | < 100 |  |  |  | < 50 |  |  |  | < 1000 |  |
| CCc1cc(NC(=O)C(=O)N2C[C@@H](C)CC[C@@H]2c2cccc(C(F)(F)CCN(C)C)c2)cnc1N [Compound 1381, N-(6-amino-5-ethylpyridin-3-yl)-2-((2R,5S)-2-(3-(3-(dimethylamino)-1,1-difluoropropyl)phenyl)-5-methylpiperidin-1-yl)-2-oxoacetamide] | < 50 |  | 100 to 1000 | < 100 | A (an IC50 ratio greater than or equal to 10 fold) |  |  | < 50 |  |  |  | < 1000 |  |
| CCc1cc(NC(=O)C(=O)N2C[C@@H](C)CC[C@@H]2c2cccc(OCCCN(C)C)c2)cnc1N [Compound 1384, N-(6-amino-5-ethylpyridin-3-yl)-2-((2R,5S)-2-(3-(3-(dimethylamino)propoxy)phenyl)-5-methylpiperidin-1-yl)-2-oxoacetamide] | 50 to 500 |  | < 100 | < 100 | A (an IC50 ratio greater than or equal to 10 fold) |  |  | < 50 |  |  |  | < 1000 |  |
| CCc1cc(NC(=O)C(=O)N2C[C@@H](C)CC[C@@H]2c2cccc(CCCN(C)C)c2)cnc1N [Compound 1393, N-(6-amino-5-ethylpyridin-3-yl)-2-((2R,5S)-2-(3-(3-(dimethylamino)propyl)phenyl)-5-methylpiperidin-1-yl)-2-oxoacetamide] | 50 to 500 |  | 100 to 1000 | < 100 | A (an IC50 ratio greater than or equal to 10 fold) |  |  | < 50 |  |  |  | < 1000 |  |
